Marks after values point to notes of the source that are not given here.
System: MRSA 01, MRSA 15, MRSA 16
Assay: Mutational frequency evaluation, Example 1
Format: cell-based, Staphylococcus aureus
Conditions: for Resistance mutation rate at MIC × 1: tested against one strain: MRSA 01
Method: Adequate dilutions were plated on plates without the compound.
Viable cell growth was enumerated after 48 hours of incubation at 37° C.
Ten replicates were carried out for each strain and fusidic acid, mupirocin and retapamulin were used as controls for the MRSA 01 strain.

Structure (SMILES) | Resistance mutation rate at MIC × 1 | mutational frequency at MIC×1 (text summary of Table 4)
CC(=O)O[C@H]1C[C@@]2(C)[C@@H](C[C@@H](O)[C@H]3[C@@]4(C)CC[C@@H](O)[C@@H](C)[C@@H]4CC[C@@]32C)/C1=C(\CCC=C(C)C)C(=O)O [Fusidic acid] | ≥4 × 10^−5* | 
C/C(=C\C(=O)OCCCCCCCCC(=O)O)C[C@@H]1OC[C@H](C[C@@H]2O[C@H]2[C@@H](C)[C@H](C)O)[C@@H](O)[C@H]1O [Mupirocin] | ≥4 × 10^−5* | 
O=C(Nc1ccc([N+](=O)[O-])cc1Cl)c1cc(Cl)ccc1O [Niclosamide, 5-chloro-N-(2-chloro-4-nitrophenyl)-2-hydroxybenz-amide] |  | < 4×10^−10
C=C[C@]1(C)C[C@@H](OC(=O)CS[C@@H]2C[C@H]3CC[C@@H](C2)N3C)[C@]2(C)[C@H](C)CC[C@]3(CCC(=O)[C@H]32)[C@@H](C)[C@@H]1O [Retapamulin] | ≥4 × 10^−5* | 
